Here are results for one compound from patent publication EP2218441A1, “Methods for the prevention and/or treatment of age spots” (Rahn Ag, priority 2009, dated 2010).

In the assay the test system is human keratinocytes (NHKs). The assay is described as follows: Lipofuscin autofluorescence in human keratinocytes under H2O2 oxidative stress, normalized to total protein. It counts as cell-based. The settings on record: Keratinocyte, 48 h, 0.5 µg/ml oleuropein for 24 h before and 2 days after the stress, 1 mM H2O2 for 20 minutes, measured 2 days after oxidative stress, read-out: decrease of lipofuscin formation, as compared to untreated H2O2- exposed cells. The method, then:
Because there is no specific lipofuscin antibody and its composition varies between different cell types, lipofuscin autofluorescence is the most widely used method for its detection and quantification. In order to evaluate the effect of oleuropein on lipofuscin formation in oxidatively stressed cells, lipofuscin accumulation was measured by autofluorescence, after induction of oxidative stress to human keratinocytes, treated or not with oleuropein.
After 24h incubation with oleuropein, the cells were treated with 1mM H2O2 for 20 minutes. After a recovery time of 2, 4 or 7 days, representative pictures of cells were taken and lipofuscin amount was quantified by autofluorescence measurement. […]
After 2, 4 and 7 days, respectively, representative pictures of the cells were taken, and lipofuscin autofluorescence was measured.
The total protein content was determined at each time-point for data normalization purposes. […]
The autofluorescence of lipofuscin was detected at wavenlengths of 570-605nm after an excitation at 366nm, using a fluorometer (Vistor2TM, PerkinElmer, Belgium).
For each condition tested, the quantity of autofluorescent lipofuscin was normalized to the amount of total proteins. […] The dosage of proteins was performed following the Bradford method, based on the detection of the absorbance of Coomassie Blue (Coomassie Protein Assay Kit, Pierce, USA). […]

The structures appear in SMILES notation.

For the compound `C/C=C1/[C@H](O[C@@H]2O[C@H](CO)[C@@H](O)[C@H](O)[C@H]2O)OC=C(C(=O)OC)[C@H]1CC(=O)OCCc1ccc(O)c(O)c1` [oleuropein, Oleuropein], the inhibition at 0.5 µg/mL was 13%.
